Data: patent US20090093054A1, “CRYOPRESERVATION OF HUMAN BLASTOCYST-DERIVED STEM CELLS BY USE OF A CLOSED STRAW VITRIFICATION METHOD” (Cellartis AB, priority 2003, published 2009)
Values joined by “and” are separate entries in the source; they are usually repeats but may differ in a detail not shown here. Equal entries are not always repeated.

Experiments:
[1] = tested on: Human BS cell line SA121; assay: Thawing recovery after closed straw vitrification and devitrification, cell line SA121; type: cell-based; details: for Thawing recovery, trehalose compared with sucrose: same molar concentration in vitrification and devitrification medium; for Thawing recovery: viable thawed colonies / hBS cell pieces originally vitrified, per individual closed straw, 48 h after seeding on MEF, sugar in vitrification and devitrification medium, same molar concentration for both; for Thawing recovery (SA121): viable colonies / pieces vitrified per closed straw, 48 h after seeding
Protocol: Two solutions A and B are prepared (Solution A: Sterile filtered 10% Ethylene glycol, 10% DMSO in Cryo-PBS; Solution B: Sterile filtered 0.3M Trehalose, 20% Ethylene glycol, 10% DMSO in Cryo-PBS) Selected colonies of human blastocyst-derived stem cells, which display proper morphology, are cut in the same way as when the cells are cut for regular passage using a stem cell cutting tool (Swemed Labs International, BilIdal, Sweden). The cell pieces should be about 0.1-0.4 mm×0.1-0.4 mm in size. The cell pieces are incubated first in 500 μl preheated (37° C.) Solution A for 1 min and then transferred to 25 μl Solution B and incubated for 30 s and then transferred again to a fresh drop of Solution B and incubated for 30 s. The volume is about 40-50 μl. About 10 cell pieces are aspirated into a straw prepared for vitrification and the straw is then closed with a bond. The straw is plunged into liquid nitrogen.
Two solutions C and D are prepared (Solution C: Sterile filtered 0.2M Trehalose in Cryo-PBS.; Solution D: Sterile filtered 0.1 M Trehalose in Cryo-PBS). Solutions C and D and hBS-medium are preheated at 37° C. A closed straw containing vitrified hBS cells (about 10 cell pieces) is removed from the liquid nitrogen tank. The straw is keep at room temperature for 10 s and then quickly thawed in a 40° C. water bath (within seconds). The straw is cut open in the plugged end using an autoclaved pair of scissors and the content pushed out from the straw into solution C using a syringe. The hBS cells are incubated for 1 min in 500 μl solution C and the transferred to 500 μl solution D and incubated for 5 min. Under a stero-microscope the hBS cell pieces are quickly rinsed in hBS medium and then seeded in a culture dish on top of mouse embryonic feeder cells in hBS medium. The cells are then cultured (incubated at 37° C.) and the number of established new colonies are counted and passaged in order to verify the viability of the hBS cells after vitrification. The recovery of viable cells following this vitrifying and thawing procedures is normally in the range of 70-100%.
Human BS cells (cell line SA121) were vitrified and thawed either following the procedure described in Example 1 & 2 or following the procedure described in Example 1 and 2 with the exception that trehalose was used in the vitrification and devitrification medium was replaced by sucrose in the same molar concentration as used for trehalose. Forty-eight hours after seeding in culture dishes on top of mouse embryonic feeder cells the hBS cell colonies were evaluated and counted. The thawing recovery was calculated as the ratio between the number of viable thawed colonies (displaying appropriate hBS cell morphology) and the number of hBS cell pieces originally vitrified. […]
Human BS cells (cell line SA121) were vitrified and thawed following the procedure described in Example 1 & 2 with the exception that trehalose was used in two different concentrations (0.3M and 0.5M) in the second vitrification solution (solution B). When 0.3 M trehalose was used in solution B, solution C contained 0.2 M trehalose and solution D contained 0.1 M trehalose. When 0.5 M trehalose was used in solution B, solution C contained 0.4 M trehalose and solution D contained 0.2 M trehalose. Forty-eight hours after seeding in culture dishes on top of mouse embryonic feeder cells the hBS cell colonies were evaluated and counted. The thawing recovery was calculated as the ratio between the number of viable thawed colonies (displaying appropriate hBS cell morphology) and the number of hBS cell pieces originally vitrified. Two separate experiments using two different human BS cell lines were performed. Three straws were prepared and evaluated per cell line and the results are presented below for each individual straw.

[2] = tested on: Human BS cell line SA002; assay: Thawing recovery after closed straw vitrification and devitrification, cell line SA002; type: cell-based; details: viable colonies / pieces vitrified per closed straw, 48 h after seeding
[3] = 0.3M trehalose in solution B (C 0.2 M, D 0.1 M)
[4] = 0.5M trehalose in solution B (C 0.4 M, D 0.2 M)

Structure (SMILES)	Thawing recovery, trehalose compared with sucrose ([1]; result in words)	Thawing recovery [1]	Thawing recovery (SA121) [1, 3]	Thawing recovery (SA121) [1, 4]	Thawing recovery, 0.5 M compared with 0.3 M trehalose in solution B ([1]; cell lines SA121 and SA002, result in words)	Thawing recovery (SA002) [2, 3]	Thawing recovery (SA002) [2, 4]
OC[C@H]1O[C@@](CO)(O[C@H]2O[C@H](CO)[C@@H](O)[C@H](O)[C@H]2O)[C@@H](O)[C@@H]1O [Sucrose]	no significant difference	8/10 and 5/10 and 9/10					
OC[C@H]1O[C@H](O[C@H]2O[C@H](CO)[C@@H](O)[C@H](O)[C@H]2O)[C@H](O)[C@@H](O)[C@@H]1O [Trehalose]	no significant difference	5/9 and 8/10 and 6/10	6/10 and 5/10	8/10 and 9/10 and 8/8	seems to work better	5/8 and 6/8 and 7/7	7/8 and 8/8 and 5/7
